Consider five compounds from PMC4506051, “Pharmacokinetic Profiles of Active Ingredients and Its Metabolites Derived from Rikkunshito, a Ghrelin Enhancer, in Healthy Japanese Volunteers: A Cross-Over, Randomized Study” (PLoS ONE, 2015).

Data set [1] is described as follows: clinical. As to conditions: human, in vivo, po, Median t max (range). The text has this: The first trial was a nonrandomized, open-label, one-period design. The second trial was a randomized, open-label, three-arm, three-period design (Fig 1). With respect to inclusion criteria, the studies included healthy Japanese adults between 20 and 45 years of age with a body mass index between 18 and 25 who were willing and able to comply with the study requirements. Exclusion criteria for this study included a history of significant liver, heart, or vessel disease and consumption of supplements that contained any rikkunshito ingredients or any drug within 3 days to 1 week before the first dose. Other standard exclusion criteria included relevant allergies, pregnant or nursing females, and any alcohol or nicotine use. The sample size was set as more than 15 based on the Ministry of Health, Labour and Welfare’s guidelines. Subjects allocated to a screening test were randomized to one of three groups by the central allocation system (allocation ratio 1:1:1). A random sequence was generated using a computer. The safety endpoint was evaluated in all volunteers. This endpoint was defined on the basis of a physician’s judgement after examination or observation that a serious adverse event had occurred. Adverse events included death, a life-threatening event, an event requiring hospitalization for treatment or an extended stay in hospital, an event resulting in permanent or temporary disability or dysfunction, an event resulting in a congenital abnormality, or any other serious medical phenomenon. With respect to side effects, no specific conditions were defined, and all adverse events for which no causal relationship with the drug could be excluded were deemed to be side effects. In each stage during the 48-h period following rikkunshito administration, the physician monitored the patient for subjective symptoms, objective findings, swelling, body temperature (axillary), blood pressure (sitting), and pulse (sitting). The physician also conducted a hematological examination to measure the patient’s red blood cell, leucocyte and platelet counts, hemoglobin level, and hematocrit value. A biochemical examination was conducted to determine total protein, blood urea nitrogen, creatinine, uric acid, aspartate aminotransferase, alanine aminotransferase, total bilirubin, alkaline phosphatase, γ-glutamyltranspeptidase albumin, prothrombin time, total cholesterol, C-reactive protein, and potassium to identify any abnormalities in comparison with the subject’s condition prior to administration. All participants fasted for 12 h before administration and 4 h after administration of the study drug.
In the second quantitative trial, 12-mL blood samples were collected at 0 (preadministration), 0.25, 0.5, 1, 2, 3, 4, 6, 8, 10, 12, 24, and 48 h after a single oral administration of rikkunshito (Lot H05142). A total of 3 daily doses were used in this trial, i.e., the clinical dose per administration (2.5 g) as the lowest dose, the clinical daily dose (7.5 g) as the highest dose, and an intermediate dose (5.0 g), to broadly discuss the pharmacokinetic characteristics of the ingredients measured. The trial participants were hospitalized overnight on the day they ingested rikkunshito, and returned home the following day after blood samples were collected at the 24-h time point. The participants returned to the hospital to provide blood samples at 48 h. The blood was immediately centrifuged at 1700 ×g for 15 min to obtain plasma. Plasma fractions were stored at −20°C or lower until analysis.
Plasma, urine, and rikkunshito formulation samples were analyzed for rikkunshito ingredients concentrations using a liquid chromatography–mass spectrometry with tandem mass spectrometer assay (LC–MS/MS; API5000, Triple Quad 6500, or QTRAP5500; AB Sciex, Tokyo, Japan) or gas chromatography–mass spectrometry. Further information of analytical methods can be found at S1 Appendix.

A short description of data set [2]: Method validation: stability in blood. The note with it: 4 pg/mL.
Data set [3] can be described thus: Method validation: long-term stability in plasma. As to conditions: 160 pg/mL.
Data set [4] is described as follows: Method validation: freeze-thaw stability in plasma. As to conditions: 160 pg/mL, deep freezer (−30°C to −10°C), after 3 cycles of freeze-thaw.
The nature of data set [5]: Method validation: post-preparative stability (autosampler).
Data set [6] can be described thus: Method validation: stability in standard, stock and working solution. As to conditions: 0.1 mg/mL.
The nature of data set [7]: Exploratory trial: plasma concentration of rikkunshito ingredients after single oral rikkunshito 7.5 g. The note with it: mean ± S.D., n = 4. The class given is in vivo. The procedure: A random sequence was generated using a computer. The safety endpoint was evaluated in all volunteers.
(§1) In the first exploratory trial, 20-mL blood samples were collected from the cutaneous vein in the subjects’ forearm via a blood sampling tube that contained heparin at 0 (preadministration), 0.5, 1, 2, 4, and 8 h after a single oral administration of rikkunshito (Lot E24652). The dose of rikkunshito used in this trial was 7.5 g/day, which is the clinical daily dose, to widely explore rikkunshito-derived ingredients that enter the blood. Along with plasma, urine samples were collected at three points: between dinner and bedtime (preadministration), between 0 and 4 h after administration, and between 4 and 8 h after administration. The blood was immediately centrifuged at 1700 ×g for 10 min to obtain plasma. Plasma and urine fractions were stored at −80°C or lower until analysis.
(§2) For quantification of synephrine, 5 µL of standard solution or methanol was added to 100 µL plasma or urine samples followed by mixing. Ten microliters of erythromycin [internal standard (IS)] solution was added to the solutions followed by mixing and centrifugation (20,400 ×g, 5 min, 4°C). The supernatants were loaded onto an Ostro 96-well plate (Waters) and centrifuged (1500 ×g, 3 min, 4°C) followed by injection into the LC–MS/MS.
(§3) For quantification of 30 ingredients other than atractylodin and synephrine, 25 µL of standard solution or methanol was added to 500 µL plasma or urine samples followed by mixing. Atractylenolide III or digoxin (IS) solution (50 μL) was added to the solutions followed by mixing. For urine, 400 µL of blank plasma was added to the solutions. Ammonium acetate solution (100 mM, 100 or 400 µL) was added to the solutions followed by mixing. For enzymatic treatment, plasma and urine samples were incubated with β-glucuronidase (100 units in 100 mM ammonium acetate) for 2 h at 37°C. A solid-phase cartridge (OASIS HLB, 30 mg/1cc, Waters) was conditioned with methanol and 10 mM ammonium acetate solution, and the samples were loaded onto the cartridge. The cartridge was washed water : methanol (9:1, v/v), and 1.5 mL of methanol and 30 µL of propylene glycol were added to the cartridge to elute the analytes. The mixtures were dried at 25°C under a stream of nitrogen gas. Furthermore, 100 μL of 10 mM ammonium acetate : methanol (8:2, v/v) was added to the dried samples followed by mixing and sonication. The solutions were filtered (0.22 µm) and followed by injection into the LC–MS/MS system. […] Those analytical conditions are summarized in S2 Table and S3 Table.

A short description of data set [8]: Exploratory trial: amount of rikkunshito ingredients in urine. The class given is in vivo, human. The procedure: as §1, §2, §3
Data set [9] in a line: Stability of ingredients in gastric pH solution (pH 1.2, 37°C). The note with it: pH 1.2. The format is physicochemical. The procedure: Rikkunshito gradually dissolved in acidic solution (pH 1.2) at 37°C, and the concentration of atractylodin after adding 0.25, 0.5, 1, and 2 h was measured by gas chromatography–mass spectrometry.
For data set [10] the following is noted: of the ingredient in the formulation; summary table, reference not given; cited from earlier work.
A short description of data set [11]: Formation of ingredients derived from rikkunshito in formulation, blood, and urine (S11 Table summary). As to conditions: after rikkunshito administration, per ingredient in the formulation; for Formation of ingredients: form found in Urine: BQL = below the quantification limit.

In the case of `O=C1C[C@@H](c2ccc(O)cc2)Oc2cc(O)ccc21` [Liquiritigenin], the Tmax in data set [1] was over 3 h. Also, the “Stability in blood, RR” value is listed as 82.0% in data set [2] (at room temperature for 2 h) and 91.6% in [2] (on ice for 2 h). The “Long-term stability, RR” value is recorded as 92.5% in [3] (freezer (−30°C to −10°C) for 22 days), 87.4% in data set [3] (freezer (−30°C to −10°C) for 31 days) and 87.9% in data set [3] (freezer (−30°C to −10°C) for 220 days). The “Freeze-thaw stability, RR” value in data set [4] is 92.5%. Further, the “Post-preparative stability, RR” value in data set [5] (4 pg/mL, autosampler set at 4°C for 25 h) is 89.2%; in data set [5] (4 pg/mL, autosampler set at 4°C for 48 h), 94.1%; in [5] (160 pg/mL, autosampler set at 4°C for 25 h) it was 99.3%; in data set [5] (160 pg/mL, autosampler set at 4°C for 48 h), 103.4%. The “Stock solution stability, RR” value in [6] (refrigerator (1°C to 8°C) for 54 days) was 54 days: 99.6%; in [6] (refrigerator (1°C to 8°C) for 129 days) it was 129 days: 103.5%.
On to `O=C1C[C@@H](c2ccc(O[C@@H]3O[C@H](CO)[C@@H](O)[C@H](O)[C@H]3O)cc2)Oc2cc(O)ccc21` [Liquiritin], for which the “Plasma concentration, 0 h” value in [7] (0 h (preadministration), single oral rikkunshito 7.5 g) is recorded as “BQL”. Also, the “Plasma concentration, 0.5 h” value in [7] (0.5 h after single oral rikkunshito 7.5 g) came out at 1.02 ± 0.131 ng/mL. The “Plasma concentration, 1 h” value in [7] (1 h after single oral rikkunshito 7.5 g) stood at 0.841 ± 0.0943 ng/mL. Also, the “Plasma concentration, 2 h” value in data set [7] (2 h after single oral rikkunshito 7.5 g) turned out to be 0.403 ± 0.0913 ng/mL. Further, the “Plasma concentration, 4 h” value in data set [7] (4 h after single oral rikkunshito 7.5 g) was 0.114 ± 0.0392 ng/mL. Besides, the “Plasma concentration, 8 h” value in [7] (8 h after single oral rikkunshito 7.5 g) is “BQL”. For the same compound, in data set [8] (human, in vivo), the “Amount in urine, Pre” value is recorded as 15.7 ± 19.0 ng. The “Amount in urine, 4–8 h” value in data set [8] (human, in vivo, po) is on record as 1900 ± 945 ng. Also, the “Stability in gastric pH solution, Quantitative value” in data set [9] (0.5 h) came to 1670 ng/mL; in [9] (1 h), 1830 ng/mL; in [9] (2 h) it was 1720 ng/mL. Also, the Metabolite by enterobacterium entry in [10] is “Liquiritigenin^b”. Moreover, in data set [11], the “Formation of ingredients: form found in Blood” value (shortened to “Formation … in Blood”) is recorded as “Liquiritin Liquiritigenin^c”. Besides, the “Formation of ingredients: form found in Urine” value (from here on “Formation … in Urine”) in data set [11] is on record as “Liquiritin Liquiritigenin^c”.
`C[C@@H]1O[C@@H](OC[C@H]2O[C@@H](Oc3cc(O)c4c(c3)O[C@H](c3ccc(O)cc3)CC4=O)[C@H](O)[C@@H](O)[C@@H]2O)[C@H](O)[C@H](O)[C@H]1O` [Narirutin]: the “Amount in urine, 0–4 h” value in [8] (0–4 h after single oral rikkunshito 7.5 g, mean ± S.D., n = 4) was “BQL”. The “Amount in urine, 4–8 h” value in [8] (4–8 h after single oral rikkunshito 7.5 g, mean ± S.D., n = 4) was “BQL”. Also, the “Amount in urine, Pre” value in data set [8] (preadministration (between dinner and bedtime), mean ± S.D., n = 4) was found to be 9.26 ± 18.5 ng. The “Stability in gastric pH solution, Quantitative value” in [9] (0.5 h) came to 1630 ng/mL; in data set [9] (1 h), 1700 ng/mL; in [9] (2 h) it was 1690 ng/mL. The Metabolite by enterobacterium entry in data set [10] is “Naringenin”. In addition, in data set [11], the “Formation … in Blood” value is recorded as “Naringenin Conjugate metabolites of naringenin^a”. Besides, in data set [11], the “Formation … in Urine” value was “Naringenin”.
In the case of `CC1(C)[C@@H](O[C@H]2O[C@H](C(=O)O)[C@@H](O)[C@H](O)[C@H]2O[C@@H]2O[C@H](C(=O)O)[C@@H](O)[C@H](O)[C@H]2O)CC[C@]2(C)[C@H]3C(=O)C=C4[C@@H]5C[C@@](C)(C(=O)O)CC[C@]5(C)CC[C@@]4(C)[C@]3(C)CC[C@@H]12` [glycyrrhizic acid], in [11], the “Formation … in Blood” value is 18β-Glycyrrhetinic acid Glycyrrhetinic acid 3-O-glucuronide and the “Formation … in Urine” value is 18β-Glycyrrhetinic acid Glycyrrhetinic acid 3-O-glucuronide.
Regarding `O=C(/C=C/c1ccc(O[C@@H]2O[C@H](CO)[C@@H](O)[C@H](O)[C@H]2O)cc1)c1ccc(O)cc1O` [isoliquiritin], the Metabolite by enterobacterium result in data set [10] was “Isoliquiritigenin”. In [11], the “Formation … in Blood” value was “Isoliquiritigenin Conjugate metabolites of isoliquiritigenin” and the “Formation … in Urine” value was “Isoliquiritigenin Conjugate metabolites of isoliquiritigenin”.
